Source: article PMC5717258, “Bioaccumulation of pharmaceuticals and personal care product chemicals in fish exposed to wastewater effluent in an urban wetland” (Scientific Reports, 2017)
Read-outs that look alike come from different tables or passages of the source.

Experiments:
[1] = for plasma concentration, CPM-C 01: Cootes carp 01, 2011, male; for Cootes carp plasma, range of concentrations: Cootes Paradise Marsh; for plasma concentration, carp, this study (mean) / plasma concentration, goldfish, this study (mean): Table S8
Procedure: (§1) Plasma from 9 individual male fish (500 µL/individual) was pooled to yield 3 samples for PPCP analysis. […] Plasma from 6 individual carp (2.3–3.5 g) from each location was selected for PPCP analysis. […] Plasma samples were frozen (−80 °C) until analysis.
(§2) A total of 20 fish plasma samples from the pooled caged fish (7) and the wild fish (13) along with 12 water samples were selected for analysis. […] A full list of analytes is provided in Supplementary Information. Mass labelled^13C-, or deuterated surrogate internal standards were used for quantification of all analytes via the isotope dilution/surrogate standard quantitation method. Prior to extraction and/or clean-up procedures, aqueous samples were adjusted to pH 2.0, spiked with extraction surrogate standards, then adjusted to pH 4 using tetrasodium ethylenediamine-tetraacetate dihydrate. Plasma samples (2.3–2.5 g) were spiked with extraction surrogate standards, sonicated with 20 mL acetonitrile, then diluted with ultra-pure water to 200 mL. The extracts were cleaned up by solid phase extraction using Oasis HLB cartridges (Waters Ltd. Mississauga ON), filtered, and analyzed by liquid chromatography-electrospray ionization-tandem mass spectrometry (LC/ESI-MS/MS) in positive or negative ionization mode. The analysis of the complete list of analytes (SI Table S1) required a total of five instrumental runs.
(§3) Quality assurance steps included analysis of lab blanks for water and plasma along with matrix recovery spikes. […] Detection limits (DLs) were defined as lowest calibration level adjusted to the maximal sample size or 3 times the signal of the noise in the target channel converted to an equivalent sample, whichever was greater. […] Where analytes were detected in two or more samples of the same species or series of water samples, non-detect values were converted to ½ the DL value for reporting purposes.

[2] = Procedure: as §1, §2
[3] = in vivo; details: goldfish (Carassius auratus), in vivo, plasma concentration
From the text: Cages were visited weekly, and fish (13/cage) were fed during the visits (20 g/cage). All animal experiments were in accordance with CCAC guidance and approved by the GLLFAS-WSTD Animal Care Committee (Government of Canada). Further details on the caging and preparation of the fish and animal care protocols are provided in Simmons et al.[32]. […] A fourth site, Jordan Harbour (JH), a widening of 20 Mile Creek adjacent to Lake Ontario near Jordan ON, served as a reference site. Mass and fork length were measured and recorded. Plasma collection and storage is described in the SI. Plasma of caged goldfish was divided for proteome, metabolome and PPCP analysis. Due to limited volumes, pooled samples of plasma from 25 individual fish (50 µL/individual) was pooled to yield one sample from at each location for PPCP analysis.
as §2, §3

[4] = set-up: method as in US EPA Chemistry Dashboard; details: ref US EPA Chemistry Dashboard; cited from earlier work
[5] = ref Meador et al. 18; cited from earlier work
[6] = cited from earlier work
[7] = cited from earlier work; for whole fish concentration, salmon: ref Meador et al. 18
[8] = human; converted from µg/mL; ref Schulz et al.[56]; cited from earlier work
[9] = female, carp (Cyprinus carpio), in vivo
[10] = male, carp (Cyprinus carpio), in vivo
[11] = male, goldfish (Carassius auratus), in vivo
[12] = Cootes carp 2, Sep 27, 2011, male, wet weight
[13] = Cootes carp 10, Sep 28, 2011, female, wet weight
[14] = Cootes carp 13, Sep 28, 2011, female, wet weight
[15] = Cootes carp 20, 2011, male, wet weight
[16] = Cootes carp 36, Oct 3, 2011, female, wet weight
[17] = Jordan Harbour brown bullhead, wet weight

Structure (SMILES)	plasma concentration, CPM-C 01 ([1]; wet weight)	plasma concentration, CPM-C 2 [1, 12]	plasma concentration, CPM-C 10 [1, 13]	plasma concentration, CPM-C 13 [1, 14]	plasma concentration, CPM-C 20 [1, 15]	plasma concentration, CPM-C 36 [1, 16]	Carp plasma concentration, this study (range) ([1]; Table S7)	plasma concentration, JH-BB [2, 17]	log Kow [4]	Cootes carp plasma, range of concentrations [1]	plasma concentration, carp, this study (mean) [1]	plasma concentration, goldfish, this study (mean) [1]	whole fish concentration, sculpin [5]	whole fish concentration, salmon [7]	other results
C[C@]12CCC(=O)C=C1CC[C@@H]1[C@@H]2[C@@H](O)C[C@@]2(C)[C@H]1CC[C@]2(O)C(=O)CO [Hydrocortisone]															plasma concentration, CPM-C 10 [1, 9]: 764 ng/g; plasma concentration, CPM-C 13 [1, 9]: 1010 ng/g; plasma concentration, CPM-C 36 [1, 9]: 875 ng/g; plasma concentration, JH-C 73 [1, 9]: 456 ng/g; plasma concentration, JH-C 75 [1, 9]: 1440 ng/g; plasma concentration, CPM-C 2 [1, 10]: 1010 ng/g; plasma concentration, CPM-C 20 [1, 10]: 210 ng/g; plasma concentration, JH-C 54 [1, 10]: 232 ng/g; plasma concentration, JH-C 74 [1, 10]: 242 ng/g; plasma concentration, JH-C 78 [1, 10]: 522 ng/g; plasma concentration, CPM wild-01 [1, 11]: 129 ng/g; plasma concentration, CPM wild-02 [1, 11]: 134 ng/g; plasma concentration, CPM wild-03 [1, 11]: 118 ng/g; plasma concentration, JH-BB ([2]; Brown Bullhead (Ameiurus nebulosus), in vivo): 187 ng/g; concentration at 21 days ([3]; CPM1 caged): 100 ng/g; concentration at 21 days ([3]; CPM2 caged): 107 ng/g; concentration at 21 days ([3]; CPM3 caged): 113 ng/g; concentration at 21 days ([3]; JH caged): 92.4 ng/g
NCCC(Oc1ccc(C(F)(F)F)cc1)c1ccccc1 (stereo not drawn) [Norfluoxetine]	0.338 ng/g	0.216 ng/g	0.227 ng/g	0.234 ng/g	0.179 ng/g	0.215 ng/g	0.18 to 0.34 ng/g	< 0.57 ng/g							Goldfish plasma concentration, this study (range) ([1]; Table S7): 0.17 to 1.1 ng/g; plasma concentration, CPM wild-01 ([1]; wild goldfish sample 01, 2012, wet weight): 0.300 ng/g; plasma concentration, CPM wild-02 ([1]; wild goldfish sample 02, 2012, wet weight): 0.654 ng/g; plasma concentration, CPM wild-03 ([1]; wild goldfish sample 03, 2012, wet weight): 1.1 ng/g; concentration at 21 days ([3]; CPM1 caged, CPM1, 07-2014, pooled plasma, wet weight): 0.879 ng/g; concentration at 21 days ([3]; CPM2 caged, CPM2, 07-2014, pooled plasma, wet weight): 0.58 ng/g; concentration at 21 days ([3]; CPM3 caged, CPM3, 07-2014, pooled plasma, wet weight): 0.168 ng/g; concentration at 21 days ([3]; JH caged, Jordan Harbour reference site, 07-2014, pooled plasma, wet weight): < 0.413 ng/g
O=C(Nc1ccc(Cl)cc1)Nc1ccc(Cl)c(Cl)c1 [Triclocarban]	0.317 ng/g	0.431 ng/g	0.453 ng/g	0.468 ng/g	0.324 ng/g	3.35 ng/g	0.32 to 3.35 ng/g	< 1.14 ng/g	4.90	0.32 to 3.35 ng/g	0.89 ng/g wet weight or ng/mL for plasma	< mdl	< mdl	6.5 ng/g wet weight or ng/mL for plasma	BAFP in carp plasma, median [6]: 6.9; plasma concentration, crucian carp & common carp ([6]; mean ± SD, ref Tanoue et al.16): 0.34±0.20 ng/g wet weight or ng/mL for plasma; Salmon (whole body) concentration ([7]; Table S7, ref Meador et al. (2016)): 6.5 ng/g
CCCCC(=O)N(Cc1ccc(-c2ccccc2-c2nnn[nH]2)cc1)[C@H](C(=O)O)C(C)C [Valsartan]	0.422 ng/g	1.23 ng/g	0.605 ng/g	0.625 ng/g	0.431 ng/g	0.570 ng/g	0.42 to 1.23 ng/g		3.07	0.42 to 1.23 ng/g	0.65 ng/g wet weight or ng/mL for plasma	< mdl	< mdl	< mdl	plasma concentration, JH-C 75 ([1]; Jordan Harbour carp 75, Nov 7, 2011, female, wet weight): < 1.2 ng/g; Therapeutic "normal" blood-plasma/serum concentration [8]: ~800 to 6000 ng/mL
